Measurements published in patent US20250361230A1, “LATS Inhibitors and Uses Thereof” (The USA, as Represented by the Secretary, Dept. of Heath …, priority 2022, published 2025).
pIC50: −log10 of the molar value.

Each compound was assayed against T1, LATS2 (Homo sapiens, UniProt Q9NRM7) (assay: RBC HotSpot kinase assay (33P-ATP, P81 filter-binding), LATS2). Conditions: Table 28, biochemical kinase assay; read-out: LATS2 IC50.
T1 sequence (Q9NRM7 1-1088): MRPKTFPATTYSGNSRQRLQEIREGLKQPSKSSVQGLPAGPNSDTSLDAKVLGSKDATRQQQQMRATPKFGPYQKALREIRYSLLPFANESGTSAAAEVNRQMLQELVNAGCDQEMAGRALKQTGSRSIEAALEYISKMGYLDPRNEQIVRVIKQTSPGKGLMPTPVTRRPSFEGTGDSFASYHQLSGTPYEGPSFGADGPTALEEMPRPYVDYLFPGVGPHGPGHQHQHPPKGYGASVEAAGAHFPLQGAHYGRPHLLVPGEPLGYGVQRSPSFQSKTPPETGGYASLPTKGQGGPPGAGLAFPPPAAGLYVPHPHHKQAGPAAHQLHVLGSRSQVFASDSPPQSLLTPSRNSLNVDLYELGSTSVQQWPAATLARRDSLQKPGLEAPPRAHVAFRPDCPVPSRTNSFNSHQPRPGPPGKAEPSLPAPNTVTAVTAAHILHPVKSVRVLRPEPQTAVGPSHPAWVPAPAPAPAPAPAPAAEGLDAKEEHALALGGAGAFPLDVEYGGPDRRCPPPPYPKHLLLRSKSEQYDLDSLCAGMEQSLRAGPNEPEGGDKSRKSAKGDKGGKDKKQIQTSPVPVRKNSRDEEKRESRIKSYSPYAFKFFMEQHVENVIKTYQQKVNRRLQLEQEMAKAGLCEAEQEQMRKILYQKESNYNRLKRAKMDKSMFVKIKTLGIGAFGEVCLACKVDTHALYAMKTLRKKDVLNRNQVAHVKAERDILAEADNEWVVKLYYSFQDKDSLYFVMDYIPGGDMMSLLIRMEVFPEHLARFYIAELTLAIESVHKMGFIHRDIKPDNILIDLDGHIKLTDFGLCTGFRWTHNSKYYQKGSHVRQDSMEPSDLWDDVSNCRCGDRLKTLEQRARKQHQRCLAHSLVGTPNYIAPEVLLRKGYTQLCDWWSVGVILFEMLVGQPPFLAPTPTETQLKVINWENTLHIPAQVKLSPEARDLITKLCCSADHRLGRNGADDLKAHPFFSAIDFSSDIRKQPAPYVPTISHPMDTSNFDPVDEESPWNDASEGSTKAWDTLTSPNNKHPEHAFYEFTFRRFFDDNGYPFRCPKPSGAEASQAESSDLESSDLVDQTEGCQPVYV
Format: biochemical
In short: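 Kinase in Hepes pH 7.5 buffer with Mg2+, EGTA, Brij35, BSA, vanadate, DTT and 1% DMSO, plus required cofactors and substrate, was preincubated 20 min at room temperature with compound. Reaction was started with 33P-ATP and run 2 h, then detected by P81 filter binding. IC50 (nM) came from 10-point singlet curves.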
With `Cc1cc(-c2ccnc3[nH]cc(F)c23)cc(F)c1[C@@]1(O)[C@H](C)CN(C(=O)[C@@H](CO)N(C)C)C[C@@H]1C` [Compound 313, (R)-2-(dimethylamino)-1-((3S,4S,5R)-4-(2-fluoro-4-(3-fluoro-1H-pyrrolo[2,3-b]pyridin-4-yl)-6-methylphenyl)-4-hydroxy-3,5-dimethylpiperidin-1-yl)-3-hydroxypropan-1-one] the pIC50 was 8.80.
Compound `Cc1cc(-c2ccnc3[nH]cc(F)c23)cc(F)c1C1(O)CC2(CN(C3COC3)C2)C1` [Compound 139, 6-(2-fluoro-4-(3-fluoro-1H-pyrrolo[2,3-b]pyridin-4-yl)-6-methylphenyl)-2-(oxetan-3-yl)-2-azaspiro[3.3]heptan-6-ol] has a pIC50 of 8.05.
Work on `C[C@@H]1CN(C)C[C@H](C)[C@@]1(O)c1cnc(-c2ccnc3[nH]cc(F)c23)cc1Cl` [Compound 22, (3S,4s,5R)-4-(4-chloro-6-(3-fluoro-1H-pyrrolo[2,3-b]pyridin-4-yl)pyridin-3-yl)-1,3,5-trimethylpiperidin-4-ol] yielded a pIC50 of 8.39.
For `Cc1cc(-c2ccnc3[nH]cc(F)c23)ccc1[C@@]1(O)[C@H](C)CN(C2CCS(=O)(=O)CC2)C[C@@H]1C` [Compound 55, 4-((3R,4s, 5S)-4-(4-(3-fluoro-1H-pyrrolo[2,3-b]pyridin-4-yl)-2-methylphenyl)-4-hydroxy-3,5S-dimethylpiperidin-1-yl)tetrahydro-2H-thiopyran 1,1-dioxide], the pIC50 was 7.92.
`Cc1cc(-c2ccnc3[nH]cc(F)c23)ncc1[C@@]1(O)[C@H](C)CN(C2CCC2)C[C@@H]1C` [Compound 48, (3R,4s,5S)-1-cyclobutyl-4-(6-(3-fluoro-1H-pyrrolo[2,3-b]pyridin-4-yl)-4-methylpyridin-3-yl)-3,5-dimethylpiperidin-4-ol] was tested, and the pIC50 was 7.79.
Compound `COC(=O)c1c[nH]c2nccc(-c3cc(C)c([C@@]4(O)[C@H](C)CN(C(=O)CN)C[C@@H]4C)c(F)c3)c12` [Compound 310, methyl 4-(3-fluoro-4-((3S,4s,5R)-1-glycyl-4-hydroxy-3,5-dimethylpiperidin-4-yl)-5-methylphenyl)-1H-pyrrolo[2,3-b]pyridine-3-carboxylate] has a pIC50 of 8.64.
Work on `C[C@@H]1CN(C(=O)CN)C[C@H](C)[C@@]1(O)c1c(F)cc(-c2ccnc3[nH]cc(F)c23)cc1F` [Compound 58] yielded a pIC50 of 7.95.
`CC1CC(c2ccc(-c3ccnc4[nH]ccc34)cc2)CC(C)N1` (stereo not drawn) [Compound 187, 4-(4-(2,6-dimethylpiperidin-4-yl)phenyl)-1H-pyrrolo[2,3-b]pyridine] gave a pIC50 of 7.20.
`C[C@@H]1CNC[C@H](C)[C@@]1(O)c1ccc(-c2ccnc3[nH]cc(F)c23)cc1Cl` [Compound 1, (3S,4S,5R)-4-(2-chloro-4-(3-fluoro-1H-pyrrolo[2,3-b]pyridin-4-yl)phenyl)-3,5-dimethylpiperidin-4-ol] gave a pIC50 of 7.84.
Compound `Cc1cc(-c2ccnc3[nH]cc(F)c23)cc(F)c1[C@@]1(O)[C@H](C)CN(C(=O)CN)C[C@@H]1C` [Compound 61, 2-amino-1-((3R,4s,5S)-4-(2-fluoro-4-(3-fluoro-1H-pyrrolo[2,3-b]pyridin-4-yl)-6-methylphenyl)-4-hydroxy-3,5-dimethylpiperidin-1-yl)ethan-1-one] has a pIC50 of 8.49.
In the case of `Cc1cc(-c2ccnc3[nH]ccc23)ccc1CN` [Compound 266, (2-methyl-4-(1H-pyrrolo[2,3-b]pyridin-4-yl)phenyl) methanamine], the pIC50 was 8.30.
Work on `Cc1cc(-c2ccnc3[nH]cc(Cl)c23)ccc1CN` [Compound 254, (4-(3-chloro-1H-pyrrolo[2,3-b]pyridin-4-yl)-2-methylphenyl) methanamine] yielded a pIC50 of 8.28.
With `NCc1ccc(-c2ccnc3[nH]cc(-c4cccnc4)c23)cc1` [Compound 245, (4-(3-(pyridin-3-yl)-1H-pyrrolo[2,3-b]pyridin-4-yl)phenyl) methanamine] the pIC50 was 7.62.
Work on `NCc1ccc(-c2ccnc3[nH]cc(F)c23)cc1` [Compound 275, (4-(3-fluoro-1H-pyrrolo[2,3-b]pyridin-4-yl)phenyl) methanamine] yielded a pIC50 of 8.08.
`Cc1cc(-c2ccnc3[nH]cc(F)c23)cc(F)c1[C@@]1(O)[C@H](C)CN(C)C[C@@H]1C` [Compound 304, (3S,4s,5R)-4-(2-fluoro-4-(3-fluoro-1H-pyrrolo[2,3-b]pyridin-4-yl)-6-methylphenyl)-1,3,5-trimethylpiperidin-4-ol] showed a pIC50 of 8.40.
Work on `c1cc(-c2ccc(C3CC4CCC(C3)N4)cc2)c2cc[nH]c2n1` (stereo not drawn) [Compound 184, 4-(4-(8-azabicyclo[3.2.1]octan-3-yl)phenyl)-1H-pyrrolo[2,3-b]pyridine] yielded a pIC50 of 7.30.
`Cc1cc(-c2ccnc3[nH]cc(F)c23)cc(F)c1[C@@]1(O)[C@H](C)CN(C(C)C)C[C@@H]1C` [Compound 305, (3S,4s,5R)-4-(2-fluoro-4-(3-fluoro-1H-pyrrolo[2,3-b]pyridin-4-yl)-6-methylphenyl)-1-isopropyl-3,5-dimethylpiperidin-4-ol] was tested, and the pIC50 was 8.43.
`Cc1cc(-c2ccnc3[nH]cc(F)c23)ccc1[C@@]1(O)[C@H](C)CN(C2COC2)C[C@@H]1C` [Compound 24, (3S,4s,5R)-4-(4-(3-fluoro-1H-pyrrolo[2,3-b]pyridin-4-yl)-2-methylphenyl)-3,5-dimethyl-1-(oxetan-3-yl)piperidin-4-ol] gave a pIC50 of 8.24.
`C[C@@H]1CN(C2CCS(=O)(=O)CC2)C[C@H](C)C1(O)c1c(F)cc(-c2ccnc3[nH]cc(F)c23)cc1F` (stereo partly drawn) [Compound 31, 4-((3S,5R)-4-(2,6-difluoro-4-(3-fluoro-1H-pyrrolo[2,3-b]pyridin-4-yl)phenyl)-4-hydroxy-3,5-dimethylpiperidin-1-yl)tetrahydro-2H-thiopyran 1,1-dioxide] was tested, and the pIC50 was 8.20.
`NCc1ccc(-c2ccnc3[nH]ccc23)cc1` [Compound 287, (4-(1H-pyrrolo[2,3-b]pyridin-4-yl)phenyl) methanamine] showed a pIC50 of 7.47.

Same assay, conditions: Table 32, biochemical kinase assay; read-out: LATS2 IC50
In the case of `NCC(=O)NCC(O)(c1ccc(Cl)cc1)c1ccc(-c2ccnc3[nH]cc(Cl)c23)cc1` (stereo not drawn) [Compound 1021, 2-amino-N-(2-(4-(3-chloro-1H-pyrrolo[2,3-b]pyridin-4-yl)phenyl)-2-(4-chlorophenyl)-2-hydroxyethyl) acetamide], the pIC50 was 8.80.
`COC(=O)c1c[nH]c2nccc(-c3ccc(C(O)(CN)c4ccc(Cl)cc4)cc3)c12` (stereo not drawn) [Compound 1004, Methyl 4-(4-(2-amino-1-(4-chlorophenyl)-1-hydroxyethyl)phenyl)-1H-pyrrolo[2,3-b]pyridine-3-carboxylate] was tested, and the pIC50 was 8.28.
With `NCC(O)(c1ccc(Cl)cc1)c1ccc(-c2ccnc3[nH]cc(-c4cccnc4)c23)cc1` (stereo not drawn) [Compound 1007, 2-amino-1-(4-chlorophenyl)-1-(4-(3-(pyridin-3-yl)-1H-pyrrolo[2,3-b]pyridin-4-yl)phenyl)ethan-1-ol] the pIC50 was 8.21.

Same assay, conditions: biochemical kinase inhibition; read-out: LATS2 IC50
Work on `Cc1cc(-c2ccnc3[nH]cc(C#N)c23)cc(F)c1[C@@]1(O)[C@H](C)CN(C(=O)[C@H](CO)N(C)C)C[C@@H]1C` [Compound 2023, 4-(4-((3S,4R,5R)-1-(dimethyl-L-seryl)-4-hydroxy-3,5-dimethylpiperidin-4-yl)-3-fluoro-5-methylphenyl)-1H-pyrrolo[2,3-b]pyridine-3-carbonitrile] yielded a pIC50 of 8.54.
For `Cc1cc(-c2ccnc3[nH]cc(C#N)c23)cc(F)c1[C@@]1(O)[C@H](C)CN(C(=O)CN)C[C@@H]1C` [Compound 2004, 4-(3-fluoro-4-((3S,4s,5R)-1-glycyl-4-hydroxy-3,5-dimethylpiperidin-4-yl)-5-methylphenyl)-1H-pyrrolo[2,3-b]pyridine-3-carbonitrile], the pIC50 was 8.70.
Work on `Cc1cc(-c2ccnc3[nH]cc(C#N)c23)ccc1[C@@]1(O)[C@H](C)CN(C(=O)CN)C[C@@H]1C` [Compound 2005, 4-(4-((3S,4s,5R)-1-glycyl-4-hydroxy-3,5-dimethylpiperidin-4-yl)-3-methylphenyl)-1H-pyrrolo[2,3-b]pyridine-3-carbonitrile] yielded a pIC50 of 8.92.
Work on `Cc1cc(-c2ccnc3[nH]cc(C#N)c23)cc(F)c1[C@@]1(O)[C@H](C)CN(C2CCS(=O)(=O)CC2)C[C@@H]1C` [Compound 2002, 4-(4-((3S,4s,5R)-1-(1,1-dioxidotetrahydro-2H-thiopyran-4-yl)-4-hydroxy-3,5-dimethylpiperidin-4-yl)-3-fluoro-5-methylphenyl)-1H-pyrrolo[2,3-b]pyridine-3-carbonitrile] yielded a pIC50 of 8.34.
